# Results published in ChEMBL document CHEMBL5154747, “Discovery of new carbonic anhydrase IX inhibitors as anticancer agents by toning the hydrophobic and hydrophilic rims of the active site to encounter the dual-tail approach” (Eur J Med Chem, 2022).
# Test system: RXF 393
# Test: Anticancer activity against human RXF 393 cells assessed as cell growth inhibition at 10 uM incubated for 48 hrs by SRB assay relative to control
# Format: functional
# Conditions: read-out: GI
row,SMILES,inhibition of growth at 10 µM
1,NS(=O)(=O)c1ccc(Nc2nc(N/N=C/c3c[nH]c4ccccc34)nc(Nc3ccccc3)n2)cc1,125%

# Test system: HCT-116
# Test: Anticancer activity against human HCT-116 cells assessed as cell growth inhibition at 10 uM incubated for 48 hrs by SRB assay relative to control
# Format: functional
# Conditions: read-out: GI
row,SMILES,inhibition of growth at 10 µM
1,NS(=O)(=O)c1ccc(Nc2nc(N/N=C/c3c[nH]c4ccccc34)nc(Nc3ccccc3)n2)cc1,84%

# Test system: SK-MEL-5
# Test: Anticancer activity against human SK-MEL-5 cells assessed as cell growth inhibition at 10 uM incubated for 48 hrs by SRB assay relative to control
# Format: functional
# Conditions: read-out: GI
row,SMILES,inhibition of growth at 10 µM
1,NS(=O)(=O)c1ccc(Nc2nc(N/N=C/c3c[nH]c4ccccc34)nc(Nc3ccccc3)n2)cc1,60%

# Test system: UO-31
# Test: Anticancer activity against human UO-31 cells assessed as cell growth inhibition at 10 uM incubated for 48 hrs by SRB assay relative to control
# Format: functional
# Conditions: read-out: GI
row,SMILES,inhibition of growth at 10 µM
1,NS(=O)(=O)c1ccc(Nc2nc(N/N=C/c3c[nH]c4ccccc34)nc(Nc3ccccc3)n2)cc1,50%

# Test system: OVCAR-5
# Test: Anticancer activity against human OVCAR-5 cells assessed as cell growth inhibition at 10 uM incubated for 48 hrs by SRB assay relative to control
# Format: functional
# Conditions: read-out: GI
row,SMILES,inhibition of growth at 10 µM
1,NS(=O)(=O)c1ccc(Nc2nc(N/N=C/c3c[nH]c4ccccc34)nc(Nc3ccccc3)n2)cc1,12%

# Test system: COLO 205
# Test: Anticancer activity against human COLO 205 cells assessed as cell growth inhibition at 10 uM incubated for 48 hrs by SRB assay relative to control
# Format: functional
# Conditions: read-out: GI
row,SMILES,inhibition of growth at 10 µM
1,NS(=O)(=O)c1ccc(Nc2nc(N/N=C/c3c[nH]c4ccccc34)nc(Nc3ccccc3)n2)cc1,59%

# Test system: SK-MEL-28
# Test: Anticancer activity against human SK-MEL-28 cells assessed as cell growth inhibition at 10 uM incubated for 48 hrs by SRB assay relative to control
# Format: functional
# Conditions: read-out: GI
row,SMILES,inhibition of growth at 10 µM
1,NS(=O)(=O)c1ccc(Nc2nc(N/N=C/c3c[nH]c4ccccc34)nc(Nc3ccccc3)n2)cc1,54%

# Test system: OVCAR-3
# Test: Anticancer activity against human OVCAR-3 cells assessed as cell growth inhibition at 10 uM incubated for 48 hrs by SRB assay relative to control
# Format: functional
# Conditions: read-out: GI
row,SMILES,inhibition of growth at 10 µM
1,NS(=O)(=O)c1ccc(Nc2nc(N/N=C/c3c[nH]c4ccccc34)nc(Nc3ccccc3)n2)cc1,73%

# Test system: HOP-92
# Test: Anticancer activity against human HOP-92 cells assessed as cell growth inhibition at 10 uM incubated for 48 hrs by SRB assay relative to control
# Format: functional
# Conditions: read-out: GI
row,SMILES,inhibition of growth at 10 µM
1,NS(=O)(=O)c1ccc(Nc2nc(N/N=C/c3c[nH]c4ccccc34)nc(Nc3ccccc3)n2)cc1,38%

# Biological target: Carbonic anhydrase 9 (Homo sapiens, UniProt Q16790)
# Test: Inhibition of recombinant human CA 9 preincubated for 15 mins by phenol red dye based stopped flow CO2 hydration assay
# Conditions: not given
row,SMILES,Ki
1,NS(=O)(=O)c1ccc(Nc2nc(N/N=C/c3c[nH]c4ccccc34)nc(Nc3ccccc3)n2)cc1,25.8 nM

# Test system: CCRF-CEM
# Test: Anticancer activity against human CCRF-CEM cells assessed as cell growth inhibition at 10 uM incubated for 48 hrs by SRB assay relative to control
# Format: functional
# Conditions: read-out: GI
row,SMILES,inhibition of growth at 10 µM
1,NS(=O)(=O)c1ccc(Nc2nc(N/N=C/c3c[nH]c4ccccc34)nc(Nc3ccccc3)n2)cc1,87%

# Test system: HCC 2998
# Test: Anticancer activity against human HCC 2998 cells assessed as cell growth inhibition at 10 uM incubated for 48 hrs by SRB assay relative to control
# Format: functional
# Conditions: read-out: GI
row,SMILES,inhibition of growth at 10 µM
1,NS(=O)(=O)c1ccc(Nc2nc(N/N=C/c3c[nH]c4ccccc34)nc(Nc3ccccc3)n2)cc1,47%

# Test system: NCI-H460
# Test: Anticancer activity against human NCI-H460 cells assessed as cell growth inhibition at 10 uM incubated for 48 hrs by SRB assay relative to control
# Format: functional
# Conditions: read-out: GI
row,SMILES,inhibition of growth at 10 µM
1,NS(=O)(=O)c1ccc(Nc2nc(N/N=C/c3c[nH]c4ccccc34)nc(Nc3ccccc3)n2)cc1,58%

# Test system: U-251
# Test: Anticancer activity against human U-251 cells assessed as cell growth inhibition at 10 uM incubated for 48 hrs by SRB assay relative to control
# Format: functional
# Conditions: read-out: GI
row,SMILES,inhibition of growth at 10 µM
1,NS(=O)(=O)c1ccc(Nc2nc(N/N=C/c3c[nH]c4ccccc34)nc(Nc3ccccc3)n2)cc1,71%

# Test system: SNB-19
# Test: Anticancer activity against human SNB-19 cells assessed as cell growth inhibition at 10 uM incubated for 48 hrs by SRB assay relative to control
# Format: functional
# Conditions: read-out: GI
row,SMILES,inhibition of growth at 10 µM
1,NS(=O)(=O)c1ccc(Nc2nc(N/N=C/c3c[nH]c4ccccc34)nc(Nc3ccccc3)n2)cc1,43%

# Test system: IGROV-1
# Test: Anticancer activity against human IGROV-1 cells assessed as cell growth inhibition at 10 uM incubated for 48 hrs by SRB assay relative to control
# Format: functional
# Conditions: read-out: GI
row,SMILES,inhibition of growth at 10 µM
1,NS(=O)(=O)c1ccc(Nc2nc(N/N=C/c3c[nH]c4ccccc34)nc(Nc3ccccc3)n2)cc1,66%

# Test system: SW-620
# Test: Anticancer activity against human SW-620 cells assessed as cell growth inhibition at 10 uM incubated for 48 hrs by SRB assay relative to control
# Format: functional
# Conditions: read-out: GI
row,SMILES,inhibition of growth at 10 µM
1,NS(=O)(=O)c1ccc(Nc2nc(N/N=C/c3c[nH]c4ccccc34)nc(Nc3ccccc3)n2)cc1,50%

# Test system: CAKI-1
# Test: Anticancer activity against human CAKI-1 cells assessed as cell growth inhibition at 10 uM incubated for 48 hrs by SRB assay relative to control
# Format: functional
# Conditions: read-out: GI
row,SMILES,inhibition of growth at 10 µM
1,NS(=O)(=O)c1ccc(Nc2nc(N/N=C/c3c[nH]c4ccccc34)nc(Nc3ccccc3)n2)cc1,46%

# Test system: MDA-MB-468
# Test: Anticancer activity against human MDA-MB-468 cells assessed as cell growth inhibition at 10 uM incubated for 48 hrs by SRB assay relative to control
# Format: functional
# Conditions: read-out: GI
row,SMILES,inhibition of growth at 10 µM
1,NS(=O)(=O)c1ccc(Nc2nc(N/N=C/c3c[nH]c4ccccc34)nc(Nc3ccccc3)n2)cc1,47%

# Test system: HT-29
# Test: Anticancer activity against human HT-29 cells assessed as cell growth inhibition at 10 uM incubated for 48 hrs by SRB assay relative to control
# Format: functional
# Conditions: read-out: GI
row,SMILES,inhibition of growth at 10 µM
1,NS(=O)(=O)c1ccc(Nc2nc(N/N=C/c3c[nH]c4ccccc34)nc(Nc3ccccc3)n2)cc1,68%
